Data taken from patent publication US10294202B2, “Pyrrolidinones as herbicides” (FMC Corporation, priority 2013, dated 2019).

Columns and labels:
bluegrass = assay: Test D pre-/postemergence herbicide test; type: in vivo, Poa annua; details: Preemergence; for Plant response rating, Bluegrass: scale 0 to 100 (0 no effect, 100 complete control); for Plant response rating: 250 g ai/ha, Bluegrass, scale 0 to 100
Method in brief: (§1)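 Compound applied in non-phytotoxic solvent with surfactant, either preemergence (silt loam soil) or postemergence (peat moss/vermiculite medium, 2–18 cm plants). Evaluated visually after 7 to 21 days; 0 = no effect, 100 = complete control.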

blackgrass = assay: Test D pre-/postemergence herbicide test; type: in vivo, Alopecurus myosuroides; details: Preemergence; for Plant response rating, Blackgrass: scale 0 to 100 (0 no effect, 100 complete control); for Plant response rating: 250 g ai/ha, Blackgrass, scale 0 to 100
Method in brief: as §1

galium = assay: Test D pre-/postemergence herbicide test; type: in vivo, Galium aparine; details: Preemergence; for Plant response rating, Galium: scale 0 to 100 (0 no effect, 100 complete control); for Plant response rating: 250 g ai/ha, Galium, scale 0 to 100
Method in brief: as §1

bromegrass, downy = assay: Test D pre-/postemergence herbicide test; type: in vivo, Bromus tectorum; details: Preemergence; for Plant response rating, Bromegrass, Downy: scale 0 to 100 (0 no effect, 100 complete control); for Plant response rating: 250 g ai/ha, Bromegrass, Downy, scale 0 to 100
Method in brief: as §1

foxtail, green [1] = assay: Test D pre-/postemergence herbicide test; type: in vivo, Setaria viridis; details: Preemergence; for Plant response rating, Foxtail, Green: scale 0 to 100 (0 no effect, 100 complete control); for Plant response rating: 250 g ai/ha, Foxtail, Green, scale 0 to 100
Method in brief: as §1

deadnettle = assay: Test D pre-/postemergence herbicide test; type: in vivo, Lamium amplexicaule; details: Preemergence; for Plant response rating, Deadnettle: scale 0 to 100 (0 no effect, 100 complete control); for Plant response rating: 250 g ai/ha, Deadnettle, scale 0 to 100
Method in brief: as §1

buckwheat, wild = assay: Test D pre-/postemergence herbicide test; type: in vivo, Polygonum convolvulus; details: Preemergence; for Plant response rating, Buckwheat, Wild: scale 0 to 100 (0 no effect, 100 complete control); for Plant response rating: 250 g ai/ha, Buckwheat, Wild, scale 0 to 100
Method in brief: as §1

foxtail, green [2] = assay: Test E preemergence herbicide test; type: in vivo, Setaria viridis; set-up: key: 0 = no effect, 100 = complete control
Method in brief: (§2)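 Seeds were sown in silt loam soil and treated preemergence with test chemicals in a non-phytotoxic solvent mixture containing a surfactant. Plants were kept in a greenhouse for 21 days, then visually rated against untreated controls on a 0–100 scale (0 = no effect, 100 = complete control).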

johnsongrass = assay: Test E preemergence herbicide test; type: in vivo, Sorghum halepense; set-up: key: 0 = no effect, 100 = complete control
Method in brief: as §2

In the case of `O=C1NC[C@H](c2cccc(C(F)(F)F)c2)[C@H]1C(=O)Nc1ccccc1F` [Compound 204, (3R,4S)—N-(2-fluorophenyl)-2-oxo-4-[3-(trifluoromethyl)phenyl]-3-pyrrolidinecarboxamide], the “Plant response rating, Bluegrass” value (bluegrass; 62 g ai/ha) is reported as 0, the “Plant response rating, Bluegrass” value (bluegrass; 125 g ai/ha) is reported as 15 and the “Plant response rating, Bluegrass” value (bluegrass; 31 g ai/ha) is reported as 0. The Plant response rating (bluegrass) was 35, the “Plant response rating, Blackgrass” value (blackgrass; 62 g ai/ha) was 10 and the “Plant response rating, Blackgrass” value (blackgrass; 125 g ai/ha) was 40. The “Plant response rating, Blackgrass” value (blackgrass; 31 g ai/ha) was 5, the Plant response rating (blackgrass) was 65 and the “Plant response rating, Galium” value (galium; 62 g ai/ha) was 10. The “Plant response rating, Galium” value (galium; 125 g ai/ha) was 10, the “Plant response rating, Galium” value (galium; 31 g ai/ha) was 0 and the Plant response rating (galium) was 25. The “Plant response rating, Bromegrass, Downy” value (bromegrass, downy; 62 g ai/ha) was 20, the “Plant response rating, Bromegrass, Downy” value (bromegrass, downy; 125 g ai/ha) was 35 and the “Plant response rating, Bromegrass, Downy” value (bromegrass, downy; 31 g ai/ha) was 0. For the same compound, the Plant response rating (bromegrass, downy) was 45, the “Plant response rating, Foxtail, Green” value (foxtail, green [1]; 62 g ai/ha) was 98 and the “Plant response rating, Foxtail, Green” value (foxtail, green [1]; 125 g ai/ha) was 98. For the same compound, the “Plant response rating, Foxtail, Green” value (foxtail, green [1]; 31 g ai/ha) was 90, the Plant response rating (foxtail, green [1]) was 100 and the “Plant response rating, Deadnettle” value (deadnettle; 62 g ai/ha) was 25. The “Plant response rating, Deadnettle” value (deadnettle; 125 g ai/ha) was 25, the “Plant response rating, Deadnettle” value (deadnettle; 31 g ai/ha) was 25 and the Plant response rating (deadnettle) was 35. For the same compound, the “Plant response rating, Buckwheat, Wild” value (buckwheat, wild; 62 g ai/ha) was 25, the “Plant response rating, Buckwheat, Wild” value (buckwheat, wild; 125 g ai/ha) was 25 and the “Plant response rating, Buckwheat, Wild” value (buckwheat, wild; 31 g ai/ha) was 20. For the same compound, the Plant response rating (buckwheat, wild) was 25, the “Plant response rating, Foxtail, Green” value (foxtail, green [2]; 31 g ai/ha) was 40 and the “Plant response rating, Foxtail, Green” value (foxtail, green [2]; 62 g ai/ha) was 98. For the same compound, the “Plant response rating, Foxtail, Green” value (foxtail, green [2]; 125 g ai/ha) was 95, the “Plant response rating, Foxtail, Green” value (foxtail, green [2]; 250 g ai/ha) was 98 and the “Plant response rating, Johnsongrass” value (johnsongrass; 31 g ai/ha) was 0. The “Plant response rating, Johnsongrass” value (johnsongrass; 62 g ai/ha) was 0, the “Plant response rating, Johnsongrass” value (johnsongrass; 125 g ai/ha) was 35 and the “Plant response rating, Johnsongrass” value (johnsongrass; 250 g ai/ha) was 40.

For `O=C1NC[C@H](c2cccc(C(F)(F)F)c2)[C@H]1C(=O)Nc1cccc(F)c1F` [Compound 206], the “Plant response rating, Bluegrass” value (bluegrass; 62 g ai/ha) was 30, the “Plant response rating, Bluegrass” value (bluegrass; 125 g ai/ha) was 35 and the “Plant response rating, Bluegrass” value (bluegrass; 31 g ai/ha) was 0. For the same compound, the Plant response rating (bluegrass) was 70, the “Plant response rating, Blackgrass” value (blackgrass; 62 g ai/ha) was 70 and the “Plant response rating, Blackgrass” value (blackgrass; 125 g ai/ha) was 85. For the same compound, the “Plant response rating, Blackgrass” value (blackgrass; 31 g ai/ha) was 30, the Plant response rating (blackgrass) was 90 and the “Plant response rating, Galium” value (galium; 62 g ai/ha) was 40. The “Plant response rating, Galium” value (galium; 125 g ai/ha) was 50, the “Plant response rating, Galium” value (galium; 31 g ai/ha) was 10 and the Plant response rating (galium) was 80. For the same compound, the “Plant response rating, Bromegrass, Downy” value (bromegrass, downy; 62 g ai/ha) was 25, the “Plant response rating, Bromegrass, Downy” value (bromegrass, downy; 125 g ai/ha) was 55 and the “Plant response rating, Bromegrass, Downy” value (bromegrass, downy; 31 g ai/ha) was 10. For the same compound, the Plant response rating (bromegrass, downy) was 70, the “Plant response rating, Foxtail, Green” value (foxtail, green [1]; 62 g ai/ha) was 95 and the “Plant response rating, Foxtail, Green” value (foxtail, green [1]; 125 g ai/ha) was 98. For the same compound, the “Plant response rating, Foxtail, Green” value (foxtail, green [1]; 31 g ai/ha) was 85, the Plant response rating (foxtail, green [1]) was 98 and the “Plant response rating, Deadnettle” value (deadnettle; 62 g ai/ha) was 35. For the same compound, the “Plant response rating, Deadnettle” value (deadnettle; 125 g ai/ha) was 40, the “Plant response rating, Deadnettle” value (deadnettle; 31 g ai/ha) was 20 and the Plant response rating (deadnettle) was 75. For the same compound, the “Plant response rating, Buckwheat, Wild” value (buckwheat, wild; 62 g ai/ha) was 65, the “Plant response rating, Buckwheat, Wild” value (buckwheat, wild; 125 g ai/ha) was 50 and the “Plant response rating, Buckwheat, Wild” value (buckwheat, wild; 31 g ai/ha) was 45. The Plant response rating (buckwheat, wild) was 55, the “Plant response rating, Foxtail, Green” value (foxtail, green [2]; 31 g ai/ha) was 80 and the “Plant response rating, Foxtail, Green” value (foxtail, green [2]; 62 g ai/ha) was 98. The “Plant response rating, Foxtail, Green” value (foxtail, green [2]; 125 g ai/ha) was 98, the “Plant response rating, Foxtail, Green” value (foxtail, green [2]; 250 g ai/ha) was 98 and the “Plant response rating, Johnsongrass” value (johnsongrass; 31 g ai/ha) was 30. The “Plant response rating, Johnsongrass” value (johnsongrass; 62 g ai/ha) was 50, the “Plant response rating, Johnsongrass” value (johnsongrass; 125 g ai/ha) was 75 and the “Plant response rating, Johnsongrass” value (johnsongrass; 250 g ai/ha) was 90.
